From ChEMBL document CHEMBL1201862, “PubChem BioAssay data set” (2004) come the findings set out here.

Some test systems named below: KM12; CAKI-1; ACHN; SK-MEL-28; LXFL 529; OVCAR-8; NCI-H522; M14; SF-539; Malme-3M; A549; OVCAR-5; SNB-75; COLO 205; UACC-257; NCI-H226; IGROV-1; BT-549; PC-3; Hs-578T.
Holding throughout (assay): growth of human tumour cells (NCI), 48 h

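A five-concentration, 48-hour dose response in 96-well plates underlies each endpoint, interpolated linearly between surrounding concentrations. GI50: concentration for 50% inhibition of growth.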 Calls of active or inactive are those of the source. Rule as the data show it: active = GI50 up to about 1.1 µM and inactive = higher.

On to `CC1(C)CC(=O)C(/C(=N/NC(=S)NN)C(=O)Nc2nc3ccc([N+](=O)[O-])cc3s2)C(=O)C1`, for which the GI50 in the experiment with KM12, with CAKI-1, in the experiment on ACHN, with SK-MEL-28, in the experiment on LXFL 529 and in the experiment with OVCAR-8 was > 100 µM (inactive) throughout. Moreover, the GI50 in the experiment on NCI-H522, in the experiment with M14, in the experiment with SF-539, with Malme-3M, in the experiment on A549 and in the experiment on OVCAR-5 was > 100 µM (inactive) each time. Besides, the GI50 is > 100 µM (inactive) with SNB-75; > 100 µM (inactive) with COLO 205; > 100 µM (inactive) with UACC-257; 55.5 µM (inactive) with NCI-H226; > 100 µM (inactive) in the experiment with IGROV-1.
Take `Brc1ccc2c(C3CN[C@@H](c4c[nH]c5cc(Br)ccc45)CN3)c[nH]c2c1` (stereo partly specified): the GI50 was 1.72 µM (inactive) with KM12; 10.4 µM (inactive) in the experiment on CAKI-1; 3.46 µM (inactive) with ACHN; 11.3 µM (inactive) in the experiment on SK-MEL-28; 2.13 µM (inactive) with LXFL 529; 4.23 µM (inactive) in the experiment with OVCAR-8. For the same compound, the GI50 with NCI-H522 is 2.54 µM (inactive); in the experiment with M14, 2.55 µM (inactive); in the experiment with SF-539, 3.99 µM (inactive); in the experiment with Malme-3M, 12.2 µM (inactive); in the experiment with A549, 2.8 µM (inactive); with OVCAR-5, 2.48 µM (inactive). Also, the GI50 was 16.1 µM (inactive) with SNB-75; 1.9 µM (inactive) in the experiment with COLO 205; 11.1 µM (inactive) in the experiment with UACC-257; 2.13 µM (inactive) in the experiment on NCI-H226; 5.65 µM (inactive) with IGROV-1.
As for `CCCCCCCCCCCC[C@@H](O)[C@H]1CC[C@H]([C@H](O)CCCC[C@H](O)CCCCC[C@@H](O)CC2=C[C@H](C)OC2=O)O1`, the GI50 in the experiment with KM12 is 3.35 µM (inactive); in the experiment with CAKI-1, 2.64 µM (inactive); in the experiment on ACHN, 0.116 µM (active); with SK-MEL-28 it was 2.8 µM (inactive); in the experiment with LXFL 529, 1.84 µM (inactive); in the experiment with OVCAR-8, 3.74 µM (inactive). The GI50 in the experiment with BT-549 is 10 µM (inactive); in the experiment on NCI-H522, 0.565 µM (active); in the experiment on PC-3, 1.53 µM (inactive); in the experiment on M14, 2.45 µM (inactive); with SF-539 it was 2.97 µM (inactive); with Malme-3M it was 2.09 µM (inactive). In addition, the GI50 with A549 is 1.29 µM (inactive); in the experiment with OVCAR-5, 1.18 µM (inactive); in the experiment with SNB-75 it was 2.92 µM (inactive); in the experiment on COLO 205, 1.75 µM (inactive); with Hs-578T it was 3.17 µM (inactive); with UACC-257 it was 0.0168 µM (active). Besides, the GI50 in the experiment on NCI-H226 was 3.11 µM (inactive); in the experiment on IGROV-1, 0.61 µM (active).
For `CC1=C(C(=O)Nc2cc(F)c(F)cc2F)C(c2ccc([N+](=O)[O-])cc2)C(C(=O)Nc2cc(F)c(F)cc2F)=C(C)N1`, the GI50 was 29.3 µM (inactive) with KM12; 18.5 µM (inactive) with CAKI-1; 27.1 µM (inactive) in the experiment on ACHN; 42.7 µM (inactive) with SK-MEL-28; 39.7 µM (inactive) in the experiment with LXFL 529; 33.8 µM (inactive) with OVCAR-8. The GI50 was 15.7 µM (inactive) in the experiment with NCI-H522; 54.2 µM (inactive) in the experiment with M14; 29.3 µM (inactive) with SF-539; 27.2 µM (inactive) in the experiment on Malme-3M; 37.8 µM (inactive) with A549; 35 µM (inactive) in the experiment with OVCAR-5. For the same compound, the GI50 with SNB-75 was 8.26 µM (inactive); with COLO 205, 71.4 µM (inactive); in the experiment with UACC-257, 28.7 µM (inactive); in the experiment on NCI-H226 it was 37.8 µM (inactive); with IGROV-1, 28.2 µM (inactive).
